The text below walks through data of patent US20150216168A1, “USE OF SUBSTITUTED 2-AMIDOBENZIMIDAZOLES, 2-AMIDOBENZOXAZOLES AND 2-AMIDOBENZOTHIAZOLES OR SALTS THEREOF AS ACTIVE SUBSTANCES AGAINST ABIOTIC PLANT STRESS” (BAYER CROPSCIENCE AG, priority 2012, published 2015).

The subject of one test is Hordeum vulgare. Description: Drought stress test on greenhouse crop plants, spray application, barley. It counts as in vivo. The conditions noted are these: 500 g/ha. As for the experimental part: (§1) Seeds of monocotyledonous and dicotyledonous crop plants were laid out in sandy loam in wood-fiber pots, covered with soil or sand and cultivated in a greenhouse under good growth conditions. The test plants were treated at the early leaf stage (BBCH10-BBCH13). To assure uniform water supply before commencement of stress, the potted plants were supplied with water by dam irrigation prior to substance application. The compounds according to the invention, formulated in the form of wettable powders (WP), were sprayed onto the green parts of the plants as an aqueous suspension at an equivalent water application rate of 600 I/ha with addition of 0.2% wetting agent (e.g. agrotin). Substance application was followed immediately by stress treatment of the plants. For this purpose, the pots were transferred into plastic inserts in order to prevent them from subsequently drying out too quickly. Drought stress was induced by gradual drying out under the following conditions:
(§2) “Day”: 14 hours with illumination at 26° C. […]
(§3) After the recovery phase had ended, the intensities of damage were analyzed in visual comparison to untreated, unstressed controls for the same age. The intensity of damage was first recorded as a percentage (100%=plants have died, 0%=like control plants). […]
(§4) In each trial, 3 pots per crop and dosage were treated and evaluated; the resulting efficacies are thus averages. […]

In another test the test system is Zea mays. The experiment in a line: Drought stress test on greenhouse crop plants, spray application, corn. It counts as in vivo. Conditions: 250 g/ha. As for the experimental part: as §1, §2, §3, §4

Each structure is given as a SMILES string.

`NC(=O)c1cccc2oc(-c3ccc(Cl)cc3Cl)nc12` [B1-18, 2-(2,4-Dichlorophenyl)-1,3-benzoxazole-4-carboxamide]: the “EF (HORVS): efficacy, percentage reduction in the intensity of damage” value in the test on Hordeum vulgare is given as above 5%. In the test with Zea mays, the “EF (ZEAMX): efficacy, percentage reduction in the intensity of damage” value is listed as above 5%.
